How the values were obtained:
[1] = Clathrating action of ICM (amount of compound clathrated, gas-chromatography); assay type: physicochemical; conditions: 3-folds molar amount
Protocol: ICG5 used in Experiment 15, was dissolved in deionized water to make into an aqueous solution containing 20% (w/v) of ICG5. Twenty milliliters of the aqueous solution was admixed with 3-folds amount, on a molar basis to ICG5, of either of four kinds of short chain alcohols, i.e., methanol, ethanol, propanol, and butanol; four kinds of short chain fatty acids, i.e., acetic acid, propionic acid, n-butyric acid, and n-valeic acid; and four kinds of aromatic compounds, i.e., benzyl alcohol, phenethyl alcohol, 4-phenyl-1-propanol, and o-cresol; and then stirred the mixture to homogeneity for allowing ICG5 to clathrate the compound. Successively, each solution was filtrated, and the resulting filtrate was freeze-dried to remove unclathrated compound. In order to measure the amount of compound clathrated in the freeze-dried product, the amount of each compound in each freeze-dried product was determined by gas-chromatography. Alpha-CD was used as a control and subjected to the similar test.

[2] = Reducing power by the Somogyi-Nelson method; assay type: physicochemical
Text: It was concluded that Saccharides I and II were substantially non-reducing saccharides.

Q: Which “Amount of compound clathrated” value ([1]; objective compound: 4-Phenyl 1-propanol (aromatic compound)) does the source give for `OCC1OC2OC3C(CO)OC(OC4C(CO)OC(OC5C(CO)OC(OCC6OC(OC1C(O)C2O)C(O)C(O)C6O)C(O)C5O)C(O)C4O)C(O)C3O` [ICG5, cyclo{→6)-α-D-glucopyranosyl-(1→4)-α-D-glucopyranosyl-(1→4)-α-D-glucopyranosyl-(1→4)-.α-D-glucopyranosyl-(1→4)α-D-glucopyranosyl-(1→}] here?
A: The value was 225.2 mg/g-freeze-dried product.

Q: What about the “Amount of compound clathrated” value ([1]; objective compound: Acetic acid (short chain fatty acid)) of the same molecule?
A: Its value is 82.4 mg/g-freeze-dried product.

Q: What about the “Amount of compound clathrated” value ([1]; objective compound: Benzyl alcohol (aromatic compound)) of the same molecule?
A: Its value is 61.9 mg/g-freeze-dried product.

Q: And the “Amount of compound clathrated” value ([1]; objective compound: Butanol (short chain alcohol))?
A: The value was 82.7 mg/g-freeze-dried product.

Q: What about the “Amount of compound clathrated” value ([1]; objective compound: Ethanol (short chain alcohol)) of the same molecule?
A: The value was 57.6 mg/g-freeze-dried product.

Q: What about the “Amount of compound clathrated” value ([1]; objective compound: Methanol (short chain alcohol)) of the same molecule?
A: The value was 33.5 mg/g-freeze-dried product.

Q: And the “Amount of compound clathrated” value ([1]; objective compound: Phenethyl alcohol (aromatic compound))?
A: The value was 10.0 mg/g-freeze-dried product.

Q: What about the “Amount of compound clathrated” value ([1]; objective compound: Propanol (short chain alcohol)) of the same molecule?
A: The value was 69.2 mg/g-freeze-dried product.

Q: And the “Amount of compound clathrated” value ([1]; objective compound: Propionic acid (short chain fatty acid))?
A: The value was 91.4 mg/g-freeze-dried product.

Q: What about the “Amount of compound clathrated” value ([1]; objective compound: n-Butyric acid (short chain fatty acid)) of the same molecule?
A: Its value is 69.9 mg/g-freeze-dried product.

Q: What about the “Amount of compound clathrated” value ([1]; objective compound: n-Valeic acid (short chain fatty acid)) of the same molecule?
A: The value was 48.3 mg/g-freeze-dried product.

Q: And the “Amount of compound clathrated” value ([1]; objective compound: o-Cresol (aromatic compound))?
A: Its value is 151.5 mg/g-freeze-dried product.

Q: And the Reducing power [2]?
A: The Reducing power was “less than the measurable limit”.
